Where two headings read alike, the source gives them in different places.
Assays:
[1] = rat, in vivo
[2] = Acute toxicity in rats after a single intramuscular injection; format: in vivo, Wistar rats
[3] = tested on: human lymphoblastoid cells; assay: Cytotoxicity in human lymphoblastoid cells model
[4] = tested on: solid Ehrlich carcinoma; assay: Solid Ehrlich carcinoma in white mice, tumor size dynamics
[5] = Chronic toxicity in rats: autopsy and weight coefficients of viscera; details: any of the tested doses; after the end of administration
[6] = tested on: A/Swine/1976/31 (H1N1) influenza virus; format: in vivo, mice; details: for Infectious virus titer (log10EID50/20 mg tissue): lung tissue
[7] = Chronic toxicity in rats, intramuscular 30 days: clinical observation and body weight; details: 3, 9, or 20 mg/kg intramuscularly daily for a month

## N-fullerene tris(δ-aminocaproic acid) hydrate [Agent 1]
[1]; 3 mg/kg
  Alkali hosphatase, Units/L: 143 ± 47 Units/L
  Cholesterol: 4.17 ± 0.68 mmol/L
  Glucose: 7.64 ± 1.56 mmol/L
  Total proten: 71.12 ± 6.66 g/L
[1]; 9 mg/kg
  Alkali hosphatase, Units/L: 159 ± 28 Units/L
  Glucose: 7.18 ± 0.80 mmol/L
  Total protein: 68.94 ± 2.97 g/L
  Total proten: 78.48 ± 8.94 g/L
[1]; 20 mg/kg
  Alkali hosphatase, Units/L: 248 ± 107 Units/L
  Total proten: 72.76 ± 8.11 g/L
  Urea: 9.22 ± 1.56 mmol/L
[2]; 5, 50 and 500 mg/kg single i.m.
  death during the 14-day observation period: No death occurred
[2]; females, 5 mg/kg single intramuscular, day 0
  Animal body weight (M ± SD): 163 ± 15.5 g
[2]; females, 50 mg/kg single intramuscular, day 0
  Animal body weight (M ± SD): 165 ± 17.5 g
[2]; females, 500 mg/kg single intramuscular, day 0
  Animal body weight (M ± SD): 160 ± 8.1 g
[2]; females, 500 mg/kg single intramuscular, day 7
  Animal body weight (M ± SD): 169 ± 8.0 g
[2]; males, 5 mg/kg single intramuscular, day 7
  Animal body weight (M ± SD): 228 ± 18.1 g
[2]; males, 5 mg/kg single intramuscular, day 14
  Animal body weight (M ± SD): 276 ± 17.8 g
[2]; males, 50 mg/kg single intramuscular, day 7
  Animal body weight (M ± SD): 228 ± 17.0 g
[2]; males, 50 mg/kg single intramuscular, day 14
  Animal body weight (M ± SD): 279 ± 18.3 g
[2]; males, 500 mg/kg single intramuscular, day 14
  Animal body weight (M ± SD): 258 ± 24.1 g
[2]; single intramuscular administration, exceeds the maximal tested dose
  LD50: > 500 mg/kg
[3]; 0.5 mcg/mL
  Cell survival rate, %: 95%
  Number of cells × 10^3/mL: 633 10^3/mL
[3]; 1.0 mcg/mL
  Cell survival rate, %: 94%
  Number of cells × 10^3/mL: 599 10^3/mL
[3]; 5.0 mcg/mL
  Cell survival rate, %: 96%
  Number of cells × 10^3/mL: 530 10^3/mL
[3]; 10.0 mcg/mL
  Cell survival rate, %: 92%
  Number of cells × 10^3/mL: 500 10^3/mL
[3]; 100 mcg/mL
  Cell survival rate, %: 70%
  Number of cells × 10^3/mL: 433 10^3/mL
[4]; 100 mg/kg, day 8 post transplantation
  Tumor size (mm^3): 72.5 mm^3
[4]; 100 mg/kg, day 13 post transplantation
  Tumor size (mm^3): 544.3 mm^3
[4]; 100 mg/kg, day 17 post transplantation
  Tumor size (mm^3): 693.6 mm^3
[4]; 100 mg/kg, day 21 post transplantation
  Tumor size (mm^3): 1250.8 mm^3
[4]; 100 mg/kg, day 24 post transplantation
  Tumor size (mm^3): 1654.3 mm^3
[4]; 100 mg/kg, day 28 post transplantation
  Tumor size (mm^3): 2239.8 mm^3
[4]; 300 mg/kg, day 8 post transplantation
  Tumor size (mm^3): 72.7 mm^3
[4]; 300 mg/kg, day 13 post transplantation
  Tumor size (mm^3): 416.3 mm^3
[4]; 300 mg/kg, day 17 post transplantation
  Tumor size (mm^3): 1224.6 mm^3
[4]; 300 mg/kg, day 21 post transplantation
  Tumor size (mm^3): 1703.4 mm^3
[4]; 300 mg/kg, day 24 post transplantation
  Tumor size (mm^3): 2048.5 mm^3
[4]; 300 mg/kg, day 28 post transplantation
  Tumor size (mm^3): 2525.7 mm^3
[5]
  autopsy finding at the injection site (skeletal muscles): a brownish color of muscle tissue, fascia, and fat layers was noticed
[6]; 30 mg/kg, Summary dose, n=30
  Average lifetime (LD): 10.6 days
  Increase in LD: 1.9 days
  Mortality rate, %: 56.7%
  Number of survivors: 13
[6]; 30 mg/kg, virus 1 LD50, n=15
  Average lifetime (LD): 12.3 days
  Increase in LD: 1.7 days
  Mortality rate, %: 40.0%
  Number of survivors: 9
[6]; 30 mg/kg, virus 10 LD50, n=15
  Average lifetime (LD): 8.9 days
  Increase in LD: 2.4 days
  Mortality rate, %: 73.3%
  Number of survivors: 4
[6]; 100 mg/kg, Summary dose, n=28
  Average lifetime (LD): 11.8 days
  Increase in LD: 3.1 days
  Mortality rate, %: 39.3%
  Number of survivors: 17
[6]; 100 mg/kg, virus 1 LD50, n=15
  Average lifetime (LD): 13.1 days
  Increase in LD: 2.5 days
  Mortality rate, %: 26.7%
  Number of survivors: 11
[6]; 100 mg/kg, virus 10 LD50, n=13
  Average lifetime (LD): 10.3 days
  Increase in LD: 3.7 days
  Mortality rate, %: 53.8%
  Number of survivors: 6
[6]; 300 mg/kg, Summary dose, n=28
  Average lifetime (LD): 12.3 days
  Increase in LD: 3.7 days
  Mortality rate, %: 32.1%
  Number of survivors: 19
[6]; 300 mg/kg, the lower of the virus doses used, day 15
  Size of chronic post-influenza pneumonia sites (% of the total surface area of the lungs): 25 ± 7%
[6]; 300 mg/kg, virus 1 LD50, n=14
  Average lifetime (LD): 13.6 days
  Increase in LD: 3.0 days
  Mortality rate, %: 21.4%
  Number of survivors: 11
[6]; 300 mg/kg, virus 10 LD50, n=14
  Average lifetime (LD): 11.0 days
  Increase in LD: 4.4 days
  Mortality rate, %: 42.9%
  Number of survivors: 8
[6]; 300 mg/kg, virus dose 1 LD50
  Infectious virus titer (log10EID50/20 mg tissue): 3.7 ± 0.3 log10EID50/20 mg tissue
[6]; 300 mg/kg, virus dose 5 LD50
  Infectious virus titer (log10EID50/20 mg tissue): 4.1 ± 0.2 log10EID50/20 mg tissue
[7]
  clinical signs of poisoning: no clinical signs of poisoning were observed

— patent publication US9096492B2, “Hydrated N-fullerene amino acids, method for producing the latter, and pharmaceutical compositions on the basis thereof” (priority 2011, dated 2015)
